# From patent publication US12448388B2, “PRMT5 inhibitors and uses thereof” (Gilead Sciences, Inc., priority 2023, dated 2025)
# Where “and” joins values, the source holds several entries; their conditions need not be identical. Equal entries are not always repeated.
# Tests used:
# [1] = PK data (IV/PO) in Beagle dog; conditions: in vivo; for clearance: read-out: Observed CL (converted); for bioavailability: PO 0.5 mg/Kg; for Vd: read-out: Vss
# [2] = PK data (IV/PO) in Sprague-Dawley rat; format: in vivo; conditions: for half-life / clearance / Vd / bioavailability: Sprague-Dawley, rat, in vivo; for half-life / clearance / Vd: iv; for clearance: read-out: Observed CL (converted); for Vd: read-out: Vss; for bioavailability: po
# [3] = Hepatocyte stability assay, cynomolgus monkey; format: in vitro ADME
# Method: (§1) BioreclamationIVT (Baltimore, MD) provided the cryopreserved hepatocytes, hepatocyte thawing (HT) medium, and Krebs-Henseleit buffer (KHB) medium. The stock solution concentration was 1 M in DMSO and was then diluted further in acetonitrile/water (1:1 v/v). All other chemicals were purchased from Sigma-Aldrich (St. Louis, MO) or Thermo Fisher Scientific (Waltham, MA).
# (§2) The quench solution used to stop reactions in the hepatocyte incubations was comprised of 100% (v/v) acetonitrile. Internal Standard/Quench (IS/Q) solution used to stop reactions with the positive control also contained 200 nM Labetalol.
# (§3) Metabolic Stability in Cryopreserved Hepatocytes: Test compounds, or the positive control metabolic substrate, was incubated in suspensions of cryopreserved hepatocytes at a final concentration of 1 μM. Vials containing cryopreserved hepatocytes were removed from liquid nitrogen and immediately immersed in a 37° C. water bath. The vials were swirled gently until the contents had thawed. They were then immediately emptied into 48 mL of pre-warmed thawing medium in a 50 mL conical tube. Cells remaining in the vial were re-suspended with 1.0 mL of pre-warmed thawing medium and added to the conical tube. The tube was capped and then gently inverted several times to re-suspend the hepatocytes. The cell suspension was centrifuged at 500×g for 10 minutes at room temperature and the supernatant discarded. The cell pellet was loosened by gently swirling the centrifuge tube. Non-supplemented KHB medium was added to obtain the appropriate target cell density. The viabilities of all cell preparations were ≥85%, assessed by Trypan blue dye exclusion.
# (§4) For incubations, aliquots of hepatocyte suspension (250 μL containing a cell concentration of 2×10^6 cells/mL) were added to 250 μL of 2 μM substrate (test compound or positive control) in supplemented KHB in duplicate wells in a 24-well plate. Final concentration in the incubations were 1×10^6 cells/mL and 1 μM substrate. A cell-free control incubation (KHB only) was also included. The incubations were carried out with gentle shaking in a 37° C. incubator under a humid atmosphere of 95% air/5% CO2 (v/v). Aliquots (100 μL) were removed after 0, 1, 3, and 6 hours and added to 200 μL quenching solution. The samples were then placed on a shaker for 10 min followed by centrifugation at 3000×g for 20 min. The supernatant was transferred to a new plate and diluted with 100 μL of water to reduce the organic content and then placed on a shaker for 10 mins. Samples were injected and analyzed with methods described below.
# (§5) Liquid Chromatography: Quantification of positive control and test compound was performed by analyte/internal standard peak area ratios (PAR) measured on a Thermo Scientific™ Q Exactive™ Hybrid Quadrupole-Orbitrap Mass Spectrometer MS/MS with an electrospray interface operating in positive ion mode. The mass spectrometer was coupled to a Dionex Ultimate® 3000 HPLC system. Samples (10 μL aliquots) were injected with a Leap Technologies HTC PAL autosampler. For positive control, the column used was a Thermo Scientific™ Hypersil GOLD™ HPLC column ([…], 50×2.1 mm). Mobile phase A consisted of 95% (v/v) water, 5% (v/v) acetonitrile, and contained 0.1% (v/v) formic acid (FA). Mobile phase B consisted of 95% (v/v) acetonitrile, 5% (v/v) water, and contained 0.1% (v/v) FA. Elution was achieved, at a flow rate of 0.5 mL/min, by a series of linear gradients: initial condition was 5% B at 0 min, isocratic for 20 seconds; then linear gradient to 95% B over 90 seconds, followed by isocratic for 60 seconds at 95% B, and re-equilibrated to initial conditions over 70 seconds.
# (§6) Metabolic stabilities of positive control and test compound were determined by measuring the rates of disappearance of the parent with time by determining the % of parent remaining at time t (Ct) {Obach 1997}.
# (§7) Data (% of parent remaining) were plotted on a semi-log scale and fitted using an exponential fit: […]
# [4] = Hepatocyte stability assay, dog; format: in vitro ADME; conditions: Beagle Dog
# Method: as §1, §2, §3, §4, §5, §6, §7
# [5] = system: SW780 (bladder, urothelial carcinoma; MTAP-Deleted); test: In vitro cell viability assay (CellTiter-Glo, 9 days), SW780; format: cell-based; conditions: Homo sapiens, SW780, 216 h, 9-day treatment
# Method: Some Compounds of the Disclosure were tested in Calu-6 (Vendor: ATCC; Cat #HTB-56; Description: lung, adenocarcinoma), LU99 (Vendor: JCRB; Cat #JCRB0080; Description: lung, giant cell carcinoma), SW780 (Vendor: ATCC; Cat #CRL-2169; Description: bladder, urothelial carcinoma), and BxPC-3 (Vendor: ATCC; Cat #CRL-1687; Description: pancreas, adenocarcinoma) cellular viability assays according to the general protocol. Seeded cells into 96-well plate and incubated overnight. Seeded an additional 10 wells per cell line in an additional 96-well plate for assessing Time Zero luminescence and incubated overnight. To treatment plates, added compounds into each well using Tecan D300e dispenser (nine three-fold dilutions starting at […]) and incubated for 9 days. Time Zero (no compound treatment, luminescence assessed on day 1) and 9-day treatment (luminescence assessed on day 10) plates were assessed using the same CellTiter-Glo® substrate protocol. Thawed CellTiter-Glo® Buffer and lyophilized CellTiter-Glo® substrate and equilibrated to room temperature prior to use. Transferred 100 ml CellTiter-Glo® Buffer into amber bottle containing CellTiter-Glo® substrate to reconstitute the lyophilized enzyme/substrate mixture. For Time Zero and 9-day treatment plates, removed all plating media. Added 100 μl fresh media/well. Added 100 μl CellTiter-Glo® Reagent per well. Mixed contents for 10 min on an orbital shaker to lyse cells. Recorded luminescence with Perkin Elmer Envision 2105 machine. Analyzed the data with GraphPad software.
Predicted Hepatocyte CL [3],Predicted Hepatocyte CL [4],GI50 [5] [nM],"half-life ([2]; 0.33 mg/kg, IV 0.33 mg/Kg) [h]","clearance ([2]; 0.33 mg/kg, IV 0.33 mg/Kg) [mL/min/kg]","Vd ([2]; 0.33 mg/kg, IV 0.33 mg/Kg) [L/kg]",Compound,other results
2.5 mL/min/kg,3.5 mL/min/kg,25,,,,"C[C@H]1CN(C(=O)c2cc3c(cc2F)nc(N)c2cncn23)[C@H]2c3ccc(C(F)(F)F)cc3C[C@H]2O1 (single isomer, unassigned) [Ff-81]","half-life ([1]; IV 0.5 mg/Kg): 7.9 h; clearance ([1]; IV 0.5 mg/Kg): 4.33 mL/min/kg; bioavailability [1]: 134%; half-life ([2]; 1 mg/kg, IV 1 mg/Kg): 4.7 h; clearance ([2]; 1 mg/kg, IV 1 mg/Kg): 4 mL/min/kg; Vd ([2]; 1 mg/kg, IV 1 mg/Kg): 1.65 L/kg"
,,19,,,,"C[C@@H]1CN(C(=O)c2cc3c(cc2F)nc(N)c2cncn23)[C@H]2c3ccc(OC(F)(F)F)cc3C[C@H]2O1 (single isomer, unassigned) [Ff-183]",
3 mL/min/kg,10.2 mL/min/kg,9,4.6,7.33,2.45,"Nc1nc2cnc(C(=O)N3CCC[C@@H]4Oc5cc(C(F)(F)F)cc(F)c5[C@@H]43)cc2n2cncc12 (single isomer, unassigned) [Fg-53]","half-life ([1]; IV 0.25 mg/Kg): 3.8 h; clearance ([1]; IV 0.25 mg/Kg): 6.33 mL/min/kg; Vd ([1]; IV 0.25 mg/Kg): 1.97 L/kg; bioavailability [1]: 73%; bioavailability ([2]; 1.66 mg/kg, PO 1.66 mg/Kg): 120%"
4.17 mL/min/kg,12.5 mL/min/kg,23,6,3.5,1.73,"Nc1nc2cnc(C(=O)N3CCC[C@@H]4Oc5cc(OC(F)(F)F)cc(F)c5[C@@H]43)cc2n2cncc12 (single isomer, unassigned) [Fg-55]","half-life ([1]; IV 0.25 mg/Kg): 6 h; clearance ([1]; IV 0.25 mg/Kg): 4.33 mL/min/kg; Vd ([1]; IV 0.25 mg/Kg): 1.8 L/kg; bioavailability ([2]; 1.66 mg/kg, PO 1.66 mg/Kg): 99%"
4.83 mL/min/kg and 4.67 mL/min/kg,6.33 mL/min/kg and 11.2 mL/min/kg,5,3.7,,,"Nc1nc2cc(F)c(C(=O)N3CCC[C@@H]4Oc5cc(C(F)(F)F)ccc5[C@@H]43)cc2n2cncc12 [Ff-104, (4-amino-7-fluoroimidazo[1,5-a]quinoxalin-8-yl)((4aS,9bS)-7-(trifluoromethyl)-3,4,4a,9b-tetrahydrobenzofuro[3,2-b]pyridin-1(2H)-yl)methanone]","half-life ([1]; IV 0.25 mg/Kg): 3.9 h; clearance ([1]; IV 0.25 mg/Kg): 6.5 mL/min/kg; Vd ([1]; IV 0.25 mg/Kg): 1.78 L/kg; half-life ([1]; IV 0.5 mg/Kg): 8.7 h; clearance ([1]; IV 0.5 mg/Kg): 3.17 mL/min/kg; Vd ([1]; IV 0.5 mg/Kg): 2 L/kg; bioavailability [1]: 68%; T1/2 ([2]; IV 0.33 mg/Kg, 0.33 mg/kg): 3.77 h; % F ([2]; PO 1.66 mg/Kg, 1.66 mg/kg): 67% and 98%"
,,120,,,,"Nc1nc2cnc(C(=O)N3CCC[C@@H]4Oc5cc(C(F)(F)F)ccc5[C@@H]43)cc2n2cncc12 [Ff-110, (4-aminoimidazo[1,5-a]pyrido[3,4-e]pyrazin-8-yl)((4aS,9bS)-7-(trifluoromethyl)-3,4,4a,9b-tetrahydrobenzofuro[3,2-b]pyridin-1(2H)-yl)methanone]",
4.67 mL/min/kg,12.3 mL/min/kg,11,5.9,2.5,1.29,"Nc1nc2ccc(C(=O)N3CCC[C@@H]4Oc5cc(C(F)(F)F)ccc5[C@@H]43)cc2n2cncc12 [Ff-111, (4-aminoimidazo[1,5-a]quinoxalin-8-yl)((4aS,9bS)-7-(trifluoromethyl)-3,4,4a,9b-tetrahydrobenzofuro[3,2-b]pyridin-1(2H)-yl)methanone]",
3.3 mL/min/kg,12 mL/min/kg,23,5.3,8.83,3.2,"Cc1ncc2c(N)nc3cnc(C(=O)N4CCC[C@@H]5Oc6cc(OC(F)(F)F)ccc6[C@@H]54)cc3n12 [Ff-340, (4-amino-1-methylimidazo[1,5-a]pyrido[3,4-e]pyrazin-8-yl)((4aS,9bS)-7-(trifluoromethoxy)-3,4,4a,9b-tetrahydrobenzofuro[3,2-b]pyridin-1(2H)-yl)methanone]",
5.67 mL/min/kg,12.3 mL/min/kg,10,,,,"Nc1nc2cnc(C(=O)N3CCC[C@@H]4Oc5cc(OC(F)(F)F)ccc5[C@@H]43)cc2n2cncc12 [Ff-341, (4-aminoimidazo[1,5-a]pyrido[3,4-e]pyrazin-8-yl)((4aS,9bS)-7-(trifluoromethoxy)-3,4,4a,9b-tetrahydrobenzofuro[3,2-b]pyridin-1(2H)-yl)methanone]","half-life ([2]; 0.25 mg/kg, IV 0.25 mg/Kg): 4.6 h; clearance ([2]; 0.25 mg/kg, IV 0.25 mg/Kg): 3.5 mL/min/kg; Vd ([2]; 0.25 mg/kg, IV 0.25 mg/Kg): 1.45 L/kg; bioavailability ([2]; 1.25 mg/kg, PO 1.25 mg/Kg): 99%"
15.3 mL/min/kg,15.3 mL/min/kg,,3.1,8.17,1.72,"Cc1ncn2c1c(N)nc1cnc(C(=O)N3CCC[C@@H]4Oc5cc(C(F)(F)F)ccc5[C@@H]43)cc12 [Ff-499, (4-amino-3-methylimidazo[1,5-a]pyrido[3,4-e]pyrazin-8-yl)((4aS,9bS)-7-(trifluoromethyl)-3,4,4a,9b-tetrahydrobenzofuro[3,2-b]pyridin-1(2H)-yl)methanone]",
,,12,,,,"Nc1nc2cnc(C(=O)N3CC4(CC4)C[C@@H]4Oc5cc(C(F)(F)F)ccc5[C@@H]43)cc2n2cncc12 [Ff-648, (4-aminoimidazo[1,5-a]pyrido[3,4-e]pyrazin-8-yl)((4aS,9bS)-7-(trifluoromethyl)-4a,9b-dihydro-2H-spiro[benzofuro[3,2-b]pyridine-3,1′-cyclopropan]-1(4H)-yl)methanone]",
